Test results published in patent publication US11633379B2, “Methods of inhibiting PCSK9” (TRUSTEES OF DARTMOUTH COLLEGE, priority 2017, dated 2023).

Assays:
Type in all cases: cell-based, human
[1] = system: PCSK9; assay: Basal_PCSK9 HepG2, primary SP and CRC (secreted PCSK9, ELISA)
Method: To study the effect of the compounds on PCSK9 secretion we used 1×10^6 HepG2 cells in 6-well culture plates, followed by incubation with media only, media+0.1% DMSO or Media+5 uM of 31/33/34/35 in 0.1% DMSO and collection of 50 ul of media at 8, 16, 24 and 40 hours or incubation with increasing concentration (0.2-50 μM) of 34 in 0.1% DMSO for 24 hours and collection of 50 ul of media. The collected media was analyzed for PCSK9 levels using commercially available ELISA kit (MBL-international, catalog # CY-8079) following the manufacturer instruction.
The below data (Table 2) was generated using the assays as discussed in Examples 1-2. Blanks mean no testing was performed. […] For the SP assays, the higher the number, the higher the inhibition, e.g., the better the activity of the compound. Compounds with a determined IC50 are particularly active, the IC50 values were determined via dose response curve (under the heading CRC which stands for concentration response curve aka dose response curve).

[2] = system: PCSK9; assay: Intracellular PCSK9 protein in HepG2 cells (western blot); conditions: FIG. 1A
Method: To study whether 34 affect intracellular PCSK9 levels we used 1×10^6 HepG2 cells in 6-well culture plates, followed by incubation with media+0.1% DMSO or increasing concentration (0.2-50 uM) of 34 in 0.1% DMSO for 24 hours. After 24 hours media was aspirated, cells were washed with HBSS followed by protein extraction using commercially available RIPA buffer (SIGMA-ALDRICH, catalog #20-188). Protein extracts (20 μg) were used for immunodetection of intracellular PCSK9 (western blot analysis) with a commercially available primary antibody against PCSK9 (MBL-international, catalog # CY-1037), HRP-conjugated secondary antibody (SIGMA-ALDRICH, catalog #12-348) visualized using an enhanced chemiluminescence (ECL) solution (Cumaric acid, Luminol and hydrogen peroxide), developed in a LiCore imager.

[3] = system: PCSK9 mRNA; assay: PCSK9 transcription in HepG2 cells (real-time PCR); conditions: FIG. 1B
Method: To study whether 34 affect PCSK9 mRNA levels we used 1×10^6 HepG2 cells in 6-well culture plates, followed by incubation with media+0.1% DMSO or increasing concentration (0.2-50 μM) of 34 in 0.1% DMSO for 24 hours. After 24 hours media was aspirated, cells were washed with HBSS followed by RNA extraction kit (RNeasy, QIAGEN cat #74-104). mRNA was reversed transcribed to cDNA using commercially available kit (ThermoFisher, cat #4368814) and analyzed using real-time PCR for PCSK9 transcript levels using the relative expression method known as delta-delta CT.

[4] = system: LDLR; assay: LDLR levels in HepG2 cells (western blot); conditions: 5 μM, FIG. 3
Excerpt: Protein extracts (IMO were used for immunodetection of intracellular LDLR (western blot analysis) with a commercially available primary antibody against LDLR (ABCAM, catalog #14056), HRP-conjugated secondary antibody (ABCAM, catalog #97135) visualized using an enhanced chemiluminescence (ECL) solution (Cumaric acid, Luminol and hydrogen peroxide), developed in a LiCore imager. See FIG. 3.

[5] = system: HepG2 cells; assay: Cell survival, MTT assay
Method: To study the effect of the compound on cell viability we used 1.25×10^5 HepG2 cells in 96-well culture plates, followed by incubation with media only, media+0.1% DMSO or Media+5 uM of 31/33/34/35 in 0.1% DMSO or with increasing concentration (0.2-50 μM) of 34 in 0.1% DMSO for 40 hours followed by a viability assay knows as MTT. The MTT assay is a colorimetric assay for assessing cell metabolic activity. NAD(P)H-dependent cellular oxidoreductase enzymes may, reflects the number of viable cells present. These enzymes are capable of reducing the tetrazolium dye MTT 3-(4,5-dimethylthiazol-2-yl)-2,5-diphenyltetrazolium bromide to its insoluble formazan, which has a purple color. Tetrazolium dye assays (commonalty known as the MTT assay) is used to measure cytotoxicity (loss of viable cells).

[6] = system: albumin; assay: Intracellular albumin, HepG2 (ELISA)
Method: After 24 hours media was aspirated, cells were washed with HBSS followed by protein extraction using commercially available RIPA buffer (SIGMA-ALDRICH, catalog #20-188). Protein extracts (5 μgr) were used for albumin detection using commercially available ELISA kit (ABCAM, catalog #108788) following the manufacturer instruction.

[7] = system: 4000 most abundant proteins in HepG2 cells; assay: Shotgun proteomics of HepG2 cells; conditions: 5 μM, FIGS. 8A-8B
Method: To study whether 34 affect total protein levels in hepG2 in an unbiased analysis we used 1×10^6 HepG2 cells in 6-well culture plates, followed by incubation with media+0.1% DMSO or DMSO or with increasing concentration (2.5-10 μM) of 34 in 0.1% DMSO for 24 hours. After 24 hours media was aspirated, cells were washed with HBSS followed by shotgun proteomics analysis of the most abundant ˜4000 cellular proteins. Spectral count for each protein was compared between untreated (0.1% DMSO) to treated (34 at 5 μM) samples.

[8] = system: HepG2 cells; assay: LDL-cholesterol uptake in HepG2 cells (3H-cholesterol); conditions: 10 uM for 24 hours, FIG. 16
Method: To determine whether Compound 34 increases LDL-cholesterol uptake, LDL was isolated from human plasma using ultracentrifugation and the cholesterol content of the particle was radiolabeled with 3H-cholesterol. Hepatoma cells (HepG2) were cultured (0.25×10^6 cell/well in a 24-well plate) with or without 10 uM of B004 (compound 34) for 24 hours in DMEM. Radiolabeled LDL-cholesterol (LDL-c) was added to the cells for 4 hours. Cells were washed 3 times with PBS and left to air dry. 500 μl of isopropanol was added to each well and incubate with shaking at room temperature for 3 hours in a sealed container. 50 μl of the isopropanol was placed into a scintillation vial together with 4.5 ml of scintillation liquid cocktail (Scintiverse BD). 3H-cholesterol levels were read using a beta emission radioactive counter.

In the case of `CC(=O)Oc1ccc(C2CC3(CCCCC3)c3c2[nH]c2ccccc32)cc1` (centres unmarked) [Compound 34], the “Primary SP Basal_PCSK9 HepG2 SP % Inhib @ 5 μM” value ([1]; 5 μM, HepG2, single point) is reported as 5.2%, the “accumulation of PCSK9 in culture media” value ([1]; 5 μM, HepG2 cells, FIGS. 2A-2B) is reported as “significantly reduced accumulation of PCSK9 in culture media in a time-dependent and concentration-dependent manner” and the “Primary SP Basal_PCSK9 HepG2 SP % Inhib @ 50 μM” value ([1]; 50 μM, HepG2, single point) is reported as 100.1%. The IC50 ([1]; HepG2, concentration response curve) was 3.5 µM, the “activity rating in words (PCSK9 inhibition, Table 2)” value ([1]; summary of Table 2 data) was “particularly strongly active” and the “intracellular PCSK9, pro-protein and mature forms” value [2] was “reduces levels of both the pro-protein and the mature forms of PCSK9 in a dose-dependent manner”. The “PCSK9 mRNA levels” value [3] was “reduces levels of PCSK9 mRNA in a dose-dependent manner”, the “increase in LDLR protein levels” value [4] was 21% and the cell death ([5]; 20 μM and 50 μM, HepG2, FIG. 4B) was “increased cell death”. The “HepG2 cell survival (MTT)” value ([5]; concentrations up to 5 μM, FIGS. 4A-4B) was “does not affect HepG2 cell survival at concentrations up to 5 μM”, the intracellular albumin ([6]; 20 μM and 50 μM, HepG2, result of increased cell death) was “Reduction in secreted and intracellular albumin” and the intracellular albumin ([6]; up to 10 μM, 40 hours of incubation, HepG2, FIG. 6B) was “no changes in secreted or intracellular albumin”. The “levels of the 4000 most abundant proteins” value [7] was “does not affect the levels of the 4000 most abundant proteins in HepG2 cells” and the LDL-cholesterol uptake [8] was “increases LDL-cholesterol uptake in HepG2 cells”.
